Measured values from US12201611B2, “Composition comprising high purity pyrrole derivative and method for preparation thereof” (Zydus Lifesciences Limited, priority 2020, dated 2025).

What was measured:
[1] = Stability data at 25° C. ± 2° C. and 60% ± 5% relative humidity (six months); format: physicochemical; details: 60% ± 5% RH
Procedure: (§1) As used herein, the term “prolonged storage” refers to storage for up to 6 months and different stability conditions refers to storage at 25° C. temperature and 60% relative humidity; or at 40° C. temperature and 75% relative humidity.
(§2) In another general aspect, there is provided a stable composition of Saroglitazar magnesium, wherein the composition contains Saroglitazar magnesium having purity of about 99.0% or more, by weight, by area percentage of HPLC, and one or more of the aldehyde compound of Formula (II), the diketo oxirane compound of Formula (III), the hydroxy methyl compound of Formula (IV), or the dimer compound of Formula (V) in an amount of about 0.15%, or less, by weight, relative to saroglitazar magnesium, on prolonged storage and under different stability conditions i.e. 40° C.±2° C. temperature and 75%±5% relative humidity and at 25° C.±2° C. temperature and 60±5% relative humidity as outlined by the six months' stability data as shown in Table-2 and 3.
(§3) The purity of the samples of Saroglitazar or salts thereof including magnesium and SMBA salt is measured by area percentage of HPLC using following conditions:
(§4) Equipment: Shimadzu LC2020CHT HPLC system or equivalent
(§5) Column: YMC-Pack Pro C18 ([…]×4.0 mm, 3 μm)
(§6) Detector: UV-VIS detector or PDA detector
(§7) Column Oven Temp.: 25° C.

[2] = Stability data at 40° C. ± 2° C. and 75% ± 5% relative humidity (six months); format: physicochemical; details: 75% ± 5% RH
Procedure: as §1, §2, §3, §4, §5, §6, §7

LOD ([1]; 1 month): 0.43 % w/w
Related Substance by HPLC: Formula II ([1]; 1 month): 0.01 % w/w
Related Substance by HPLC: Formula V ([1]; 1 month): 0.12 % w/w
Related Substance by HPLC: Total impurities ([1]; 1 month): 0.12 % w/w
LOD ([1]; 2 month): 0.64 % w/w
Related Substance by HPLC: Formula II ([1]; 2 month): 0.01 % w/w
Related Substance by HPLC: Formula V ([1]; 2 month): 0.12 % w/w
Related Substance by HPLC: Total impurities ([1]; 2 month): 0.12 % w/w
LOD ([1]; 3 months): 0.27 % w/w
Related Substance by HPLC: Formula II ([1]; 3 months): 0.01 % w/w
Related Substance by HPLC: Formula V ([1]; 3 months): 0.12 % w/w
Related Substance by HPLC: Total impurities ([1]; 3 months): 0.12 % w/w
LOD ([1]; 6 months): 0.35 % w/w
Related Substance by HPLC: Formula V ([1]; 6 months): 0.12 % w/w
Related Substance by HPLC: Total impurities ([1]; 6 months): 0.12 % w/w
LOD ([1]; Initial): 0.51 % w/w
Related Substance by HPLC: Formula II ([1]; Initial): 0.01 % w/w
Related Substance by HPLC: Formula V ([1]; Initial): 0.11 % w/w
Related Substance by HPLC: Total impurities ([1]; Initial): 0.18 % w/w
LOD ([2]; 1 month): 0.48 % w/w
Related Substance by HPLC: Formula II ([2]; 1 month): 0.01 % w/w
Related Substance by HPLC: Formula V ([2]; 1 month): 0.12 % w/w
Related Substance by HPLC: Total impurities ([2]; 1 month): 0.12 % w/w
LOD ([2]; 2 month): 0.44 % w/w
Related Substance by HPLC: Formula II ([2]; 2 month): 0.01 % w/w
Related Substance by HPLC: Formula V ([2]; 2 month): 0.12 % w/w
Related Substance by HPLC: Total impurities ([2]; 2 month): 0.12 % w/w
LOD ([2]; 3 months): 0.30 % w/w
Related Substance by HPLC: Formula II ([2]; 3 months): 0.01 % w/w
Related Substance by HPLC: Formula V ([2]; 3 months): 0.11 % w/w
Related Substance by HPLC: Total impurities ([2]; 3 months): 0.12 % w/w
LOD ([2]; 6 months): 0.24 % w/w
Related Substance by HPLC: Formula V ([2]; 6 months): 0.12 % w/w
Related Substance by HPLC: Total impurities ([2]; 6 months): 0.12 % w/w
LOD ([2]; Initial): 0.51 % w/w
Related Substance by HPLC: Formula II ([2]; Initial): 0.01 % w/w
Related Substance by HPLC: Formula V ([2]; Initial): 0.11 % w/w
Related Substance by HPLC: Total impurities ([2]; Initial): 0.18 % w/w
Substance: 2-ethoxy-3-(4-(2-(2-methyl-5-(4-(methylthio)phenyl)-1H-pyrrol-1-yl)ethoxy)phenyl)propanoate [Saroglitazar magnesium]
